Reference: US8269026B2, “Lupane derivatives useful for treating HIV” (priority 2008, dated 2012)

What follows are compounds tested on HIV-1 (HIVIIIB) replication in MT2 cell line (assay: HIV-1 replication in MT2 cell line with and without 30% human serum (viral RT activity in supernatant)). Conditions: Human immunodeficiency virus 1, MT2 cells, with 30% human serum, average IC50 if tested more than once, read-out: MT2 (HIVIIIB) with HS 30% IC50 range.
Assay type: cell-based
Description: HIV-1 Replication in MT2 cell line with and without 30% human serum: The cells are infected at a Multiciplicity of Infection (MOI) of 0.5 for 3 h and then washed twice with complete media to remove residual virus. Cells are then resuspended at 0.5×10^6/ml in complete medium (RPMI, 10% FBS, 1% sodium pyruvate), and seeded into 96-well plates (6.25×10^4/well). The cells are cultured in the presence or absence of various concentrations of test compounds in serial dilutions for 3 days at 37° C. The test compounds are serially diluted in complete medium supplemented or not with 30% human serum. After 3 days, 100 μL of cultured medium with cells are replaced with 120 μL of freshly diluted test compounds in complete medium containing or not 30% Human serum. The level of HIV-1 replication is determined at days 5 after infection by the presence of viral RT activity in harvested supernatant fluid. The IC50 and IC90 values for the virus replication are determined by using GRAPHPAD PRISM software.
The IC50 of the compounds tested in accordance with the HIV replication activity assay MT2 (HIVIIIB) are represented in Table 1.
`Cc1nnc(NC(=O)N[C@@]23CC[C@]4(C)C(CCC5[C@@]6(C)CC[C@H](OC(=O)CC(C)(C)C(=O)O)C(C)(C)C6CC[C@]54C)C2=C(C(C)C)C(=O)C3)o1` (stereo partly drawn) [17-19, 3β-O-(3′,3′-Dimethylsuccinyl)-17β-(N′-5-methyl-[1,3,4]oxadiazol-2-yl-ureido)-21-oxolup-18-ene] showed an IC50 of less than 0.199 µM.
`Cc1cc(C(=O)N[C@@]23CC[C@]4(C)C(CCC5[C@@]6(C)CC[C@H](OC(=O)CC(C)(C)C(=O)O)C(C)(C)C6CC[C@]54C)C2=C(C(C)C)C(=O)C3)no1` (stereo partly drawn) [19-24, 3β-O-(3′,3′-Dimethylsuccinyl)-17β-(5-methylisoxazole-3-amido)-21-oxolup-18-ene] was tested, and the IC50 was less than 0.199 µM.
Work on `CC(C)C1=C2C3CCC4[C@@]5(C)CC[C@H](OC(=O)CC(C)(C)C(=O)O)C(C)(C)C5CC[C@@]4(C)[C@]3(C)CC[C@@]2(NC(=O)N[C@H](C)C2CCCCC2)CC1=O` (stereo partly drawn) [17-55, 3β-O-(3′,3′-Dimethylsuccinyl)-17β-[N′-((R)-1-cyclohexyl-ethyl)ureido]-21-oxolup-18-ene] yielded an IC50 of less than 0.199 µM.
`CC(C)C(=O)N[C@@]12CC[C@]3(C)C(CCC4[C@@]5(C)CC[C@H](OC(=O)CC(C)(C)C(=O)O)C(C)(C)C5CC[C@]43C)C1=C(C(C)C)C(=O)C2` (stereo partly drawn) [19-31, 3β-O-(3′,3′-Dimethylsuccinyl)-17β-isopropylamido-21-oxolup-18-ene] gave an IC50 of less than 0.199 µM.
For `CC(C)C1=C2C3CCC4[C@@]5(C)CC[C@H](OC(=O)CC(C)(C)C(=O)O)C(C)(C)C5CC[C@@]4(C)[C@]3(C)CC[C@@]2(NC(=O)[C@@H]2CCCN2C(=O)OC(C)(C)C)CC1=O` (stereo partly shown) [19-57], the IC50 was less than 0.199 µM.
`CC(=O)N1CCC(NC(=O)N[C@@]23CC[C@]4(C)C(CCC5[C@@]6(C)CC[C@H](OC(=O)CC(C)(C)C(=O)O)C(C)(C)C6CC[C@]54C)C2=C(C(C)C)C(=O)C3)CC1` (stereo partly drawn) [17-11, 3β-O-(3′,3′-Dimethylsuccinyl)-17β-[N′-(1-acetyl-piperidin-4-yl)-ureido]-21-oxolup-18-ene] was tested, and the IC50 was less than 0.199 µM.
`CC(C)C1=C2C3CCC4[C@@]5(C)CC[C@H](OC(=O)CC(C)(C)C(=O)O)C(C)(C)C5CC[C@@]4(C)[C@]3(C)CC[C@@]2(NC(=O)c2ccsc2)CC1=O` (stereo partly drawn) [19-78, 3β-O-(3′,3′-Dimethylsuccinyl)-17β-(thiophene-3-amido)-21-oxolup-18-ene] was tested, and the IC50 was less than 0.199 µM.
`CC(C)C1=C2[C@H]3CC[C@@H]4[C@@]5(C)CC[C@H](OC(=O)CC(C)(C)C(=O)O)C(C)(C)[C@@H]5CC[C@@]4(C)[C@]3(C)CC[C@@]2(NC(=O)CCN2CCCC2=O)CC1=O` [19-41, 3β-O-(3′,3′-Dimethylsuccinyl)-17β-[3-(2-oxo-pyrrolidin-1-yl)-propionamido]-21-oxolup-18-ene] showed an IC50 of less than 0.199 µM.
Compound `CC(C)C1=C2[C@H]3CC[C@@H]4[C@@]5(C)CC[C@H](OC(=O)CC(C)(C)C(=O)O)C(C)(C)[C@@H]5CC[C@@]4(C)[C@]3(C)CC[C@@]2(NC(=O)[C@@H]2CCCCN2C)CC1=O` [19-65, 3β-O-(3′,3′-Dimethylsuccinyl)-17β-((S)-1-methylpiperidine-2-amido)-21-oxolup-18-ene] has an IC50 of less than 0.199 µM.
For `CC(C)C1=C2C3CCC4[C@@]5(C)CC[C@H](OC(=O)CC(C)(C)C(=O)O)C(C)(C)C5CC[C@@]4(C)[C@]3(C)CC[C@@]2(NC(=O)NC(C)(C)c2ccccc2)CC1=O` (stereo partly drawn) [17-63, 3β-O-(3′,3′-Dimethylsuccinyl)-17β-[N′-(1-methyl-1-phenyl-ethyl)-ureido]-21-oxolup-18-ene], the IC50 was less than 0.199 µM.
`CC(C)C1=C2C3CCC4[C@@]5(C)CC[C@H](OC(=O)CC(C)(C)C(=O)O)C(C)(C)C5CC[C@@]4(C)[C@]3(C)CC[C@@]2(NC(=O)OCC2CCN(C)CC2)CC1=O` (stereo partly drawn) [20-18, 3β-O-(3′,3′-Dimethylsuccinyl)-17β-(1-methylpiperidine-4-methoxycarbonylamino)-21-oxolup-18-ene] showed an IC50 of less than 0.199 µM.
`CC(C)C1=C2[C@H]3CC[C@@H]4[C@@]5(C)CC[C@H](OC(=O)CC(C)(C)C(=O)O)C(C)(C)[C@@H]5CC[C@@]4(C)[C@]3(C)CC[C@@]2(NC(=O)N2CCNCC2)CC1=O` [17-15, 3β-O-(3′,3′-Dimethylsuccinyl)-17β-[(piperazine-1-carbonyl)-amino]-21-oxolup-18-ene] showed an IC50 of less than 0.199 µM.
`Cc1cc(C(=O)N[C@@]23CC[C@]4(C)[C@H](CC[C@@H]5[C@@]6(C)CC[C@H](OC(=O)CC(C)(C)C(=O)O)C(C)(C)[C@@H]6CC[C@]54C)C2=C(C(C)C)C(=O)C3)cc(C)n1` [19-64, 3β-O-(3′,3′-Dimethylsuccinyl)-17β-(2,6-dimethylpyridin-4-yl)amido-21-oxolup-18-ene] showed an IC50 of less than 0.199 µM.
`CC(C)C1=C2C3CCC4[C@@]5(C)CC[C@H](OC(=O)CC(C)(C)C(=O)O)C(C)(C)C5CC[C@@]4(C)[C@]3(C)CC[C@@]2(NC(=O)CN2CCC2)CC1=O` (stereo partly drawn) [19-73, 3β-O-(3′,3′-Dimethylsuccinyl)-17β-(1-azetidin-acetamido)-21-oxolup-18-ene] gave an IC50 of less than 0.199 µM.
`CC(C)C1=C2[C@H]3CC[C@@H]4[C@@]5(C)CC[C@H](OC(=O)CC(C)(C)C(=O)O)C(C)(C)[C@@H]5CC[C@@]4(C)[C@]3(C)CC[C@@]2(NC(=O)c2nccs2)CC1=O` [19-21, 3β-O-(3′,3′-Dimethylsuccinyl)-17β-(1,3-thiazole-2-amido)-21-oxolup-18-ene] showed an IC50 of less than 0.199 µM.
`CC(C)C1=C2[C@H]3CC[C@@H]4[C@@]5(C)CC[C@H](OC(=O)CC(C)(C)C(=O)O)C(C)(C)[C@@H]5CC[C@@]4(C)[C@]3(C)CC[C@@]2(NC2CCN(C(=O)OC(C)(C)C)CC2)CC1=O` [16-1, 3β-O-(3′,3′-Dimethylsuccinyl)-17β-(1-tert-butyloxycarbonylpiperidine-4-amino]-21-oxolup-18-ene] showed an IC50 of less than 0.199 µM.
For `CC(C)C1=C2C3CCC4[C@@]5(C)CC[C@H](OC(=O)CC(C)(C)C(=O)O)C(C)(C)C5CC[C@@]4(C)[C@]3(C)CC[C@@]2(NC(=O)N2CCC(N(C)C(=O)OC(C)(C)C)CC2)CC1=O` (stereo partly drawn) [17-36, 3β-O-(3′,3′-Dimethylsuccinyl)-17β-[(4-(tert-butyloxycarbonyl-methyl-amino)-piperidine-1-carbonyl)-amino]-21-oxolup-18-ene], the IC50 was less than 0.199 µM.
For `CC(C)C1=C2C3CCC4[C@@]5(C)CC[C@H](OC(=O)CC(C)(C)C(=O)O)C(C)(C)C5CC[C@@]4(C)[C@]3(C)CC[C@@]2(NC(=O)N2CC[C@@H](NC(=O)OC(C)(C)C)C2)CC1=O` (stereo partly drawn) [17-40, 3β-O-(3′,3′-Dimethylsuccinyl)-17β-[((R)-3-tert-butyloxycarbonylamino-pyrrolidine-1-carbonyl)-amino]-21-oxolup-18-ene], the IC50 was less than 0.199 µM.
`CC(C)C1=C2[C@H]3CC[C@@H]4[C@@]5(C)CC[C@H](OC(=O)CC(C)(C)C(=O)O)C(C)(C)[C@@H]5CC[C@@]4(C)[C@]3(C)CC[C@@]2(NC(=O)[C@@H]2CCCN2C)CC1=O` [19-42] gave an IC50 of less than 0.199 µM.
With `CC(C)C1=C2[C@H]3CC[C@@H]4[C@@]5(C)CC[C@H](OC(=O)CC(C)(C)C(=O)O)C(C)(C)[C@@H]5CC[C@@]4(C)[C@]3(C)CC[C@@]2(NC(=O)c2ccnn2C)CC1=O` [19-34, 3β-O-(3′,3′-Dimethylsuccinyl)-17β-(1-methyl-1H-pyrazole-5-amido)-21-oxolup-18-ene] the IC50 was less than 0.199 µM.
`Cc1ccc(C(=O)N[C@@]23CC[C@]4(C)C(CCC5[C@@]6(C)CC[C@H](OC(=O)CC(C)(C)C(=O)O)C(C)(C)C6CC[C@]54C)C2=C(C(C)C)C(=O)C3)s1` (stereo partly drawn) [19-77, 3β-O-(3′,3′-Dimethylsuccinyl)-17β-(5-methyl-thiophene-2-amido)-21-oxolup-18-ene] was tested, and the IC50 was less than 0.199 µM.
For `CC(C)C1=C2[C@H]3CC[C@@H]4[C@@]5(C)CC[C@H](OC(=O)CC(C)(C)C(=O)O)C(C)(C)[C@@H]5CC[C@@]4(C)[C@]3(C)CC[C@@]2(NC(=O)NCc2ccnn2C)CC1=O` [17-76, 3β-O-(3′,3′-Dimethylsuccinyl)-17β-[N′-(2-methyl-2H-pyrazol-3-yl-methyl)-ureido]-21-oxolup-18-ene], the IC50 was less than 0.199 µM.
For `CC(C)C1=C2[C@H]3CC[C@@H]4[C@@]5(C)CC[C@H](OC(=O)[C@H]6CC[C@@](C)(C(=O)O)C6(C)C)C(C)(C)[C@@H]5CC[C@@]4(C)[C@]3(C)CC[C@@]2(NC(=O)OC(C)(C)C)CC1=O` [14-3, 3β-O-[(1′R,3′S)-1′,2′,2′-Trimethyl-cyclopentane-3′-carboxylic acid-1′-carboxyl]-17β-[N-tert-butyloxycarbonyl-amino]-21-oxolup-18-ene], the IC50 was less than 0.199 µM.
`COC(=O)N[C@@]12CC[C@]3(C)[C@H](CC[C@@H]4[C@@]5(C)CC[C@H](OC(=O)CC(C)(C)C(=O)O)C(C)(C)[C@@H]5CC[C@]43C)C1=C(C(C)C)C(=O)C2` [20-1, 3β-O-(3′,3′-Dimethylsuccinyl)-17β-nnethoxycarbonylamino-21-oxolup-18-ene] gave an IC50 of less than 0.199 µM.
`CC(C)C1=C2[C@H]3CC[C@@H]4[C@@]5(C)CC[C@H](OC(=O)CC(C)(C)C(=O)O)C(C)(C)[C@@H]5CC[C@@]4(C)[C@]3(C)CC[C@@]2(NC(=O)c2cccnc2O)CC1=O` [19-51, 3β-O-(3′,3′-Dimethylsuccinyl)-17β-(2-hydroxypyridin-3-yl)amido-21-oxolup-18-ene] showed an IC50 of less than 0.199 µM.
With `CC(C)C1=C2[C@H]3CC[C@@H]4[C@@]5(C)CC[C@H](OC(=O)CC(C)(C)C(=O)O)C(C)(C)[C@@H]5CC[C@@]4(C)[C@]3(C)CC[C@@]2(NC(=O)[C@H]2CCCN2C)CC1=O` [19-55] the IC50 was less than 0.199 µM.

Same assay, conditions: Human immunodeficiency virus 1, MT2 cells, without human serum, average IC50 if tested more than once, read-out: MT2 (HIVIIIB) IC50 range
For `Cc1cc(C(=O)N[C@@]23CC[C@]4(C)C(CCC5[C@@]6(C)CC[C@H](OC(=O)CC(C)(C)C(=O)O)C(C)(C)C6CC[C@]54C)C2=C(C(C)C)C(=O)C3)no1` (stereo partly drawn) [19-24, 3β-O-(3′,3′-Dimethylsuccinyl)-17β-(5-methylisoxazole-3-amido)-21-oxolup-18-ene], the IC50 was less than 0.199 µM.
With `CC(C)C1=C2[C@H]3CC[C@@H]4[C@@]5(C)CC[C@H](OC(=O)CC(C)(C)C(=O)O)C(C)(C)[C@@H]5CC[C@@]4(C)[C@]3(C)CC[C@@]2(NC(=O)N2CCNCC2)CC1=O` [17-15, 3β-O-(3′,3′-Dimethylsuccinyl)-17β-[(piperazine-1-carbonyl)-amino]-21-oxolup-18-ene] the IC50 was less than 0.199 µM.
With `CC(C)C1=C2[C@H]3CC[C@@H]4[C@@]5(C)CC[C@H](OC(=O)CC(C)(C)C(=O)O)C(C)(C)[C@@H]5CC[C@@]4(C)[C@]3(C)CC[C@@]2(NC2CCN(C(=O)OC(C)(C)C)CC2)CC1=O` [16-1, 3β-O-(3′,3′-Dimethylsuccinyl)-17β-(1-tert-butyloxycarbonylpiperidine-4-amino]-21-oxolup-18-ene] the IC50 was less than 0.199 µM.
`CC(C)C1=C2[C@H]3CC[C@@H]4[C@@]5(C)CC[C@H](OC(=O)CC(C)(C)C(=O)O)C(C)(C)[C@@H]5CC[C@@]4(C)[C@]3(C)CC[C@@]2(NC(=O)c2ccnn2C)CC1=O` [19-34, 3β-O-(3′,3′-Dimethylsuccinyl)-17β-(1-methyl-1H-pyrazole-5-amido)-21-oxolup-18-ene] was tested, and the IC50 was less than 0.199 µM.
In the case of `COC(=O)N[C@@]12CC[C@]3(C)[C@H](CC[C@@H]4[C@@]5(C)CC[C@H](OC(=O)CC(C)(C)C(=O)O)C(C)(C)[C@@H]5CC[C@]43C)C1=C(C(C)C)C(=O)C2` [20-1, 3β-O-(3′,3′-Dimethylsuccinyl)-17β-nnethoxycarbonylamino-21-oxolup-18-ene], the IC50 is reported as less than 0.199 µM.
